Reference: the NIST ThermoML archive (doi:10.1016/j.jct.2011.09.001)
± gives the expanded uncertainty stated by the source.

Experiments:
[1] = refractive index (Na D-line) (dimensionless); details: 101.33 kPa, Liquid, Standard Abbe refractometry
[2] = 101 kPa, Liquid; for speed of sound: Sing-around technique in a fixed-path interferometer; for mass density: Vibrating tube method
[3] = xn = mol fraction of the nth substance listed; details: 101 kPa, Liquid, x2 = 0; for speed of sound: Sing-around technique in a fixed-path interferometer; for mass density: Vibrating tube method
[4] = refractive index (Na D-line) (dimensionless); xn = mol fraction of the nth substance listed; details: 101 kPa, Liquid, Standard Abbe refractometry, x2 = 0

Row | Structure (SMILES) | refractive index ([1]; 293.15 K) | refractive index ([1]; 303.15 K) | refractive index ([1]; 313.15 K) | refractive index ([1]; 323.15 K) | refractive index ([1]; 333.15 K) | refractive index ([1]; 343.15 K) | speed of sound ([2]; 293.15 K) [m/s] | mass density ([2]; 293.15 K) [kg/m3] | speed of sound ([2]; 303.15 K) [m/s] | mass density ([2]; 303.15 K) [kg/m3] | speed of sound ([2]; 313.15 K) [m/s] | mass density ([2]; 313.15 K) [kg/m3] | speed of sound ([2]; 323.15 K) [m/s] | mass density ([2]; 323.15 K) [kg/m3] | speed of sound ([2]; 333.15 K) [m/s] | mass density ([2]; 333.15 K) [kg/m3] | speed of sound ([2]; 343.15 K) [m/s] | mass density ([2]; 343.15 K) [kg/m3] | also measured
1 | c1ccc2c(c1)CCCC2 [1,2,3,4-tetrahydronaphthalene] | 1.5414 ± 0.0005 | 1.5367 ± 0.0005 | 1.5321 ± 0.0005 | 1.5274 ± 0.0005 | 1.5228 ± 0.0005 | 1.518 ± 0.0005 | 1489.5 ± 1.3 | 969.5 ± 0.2 | 1450.1 ± 1.2 | 961.6 ± 0.2 | 1411.5 ± 1.2 | 953.7 ± 0.2 | 1373.6 ± 1.2 | 945.7 ± 0.2 | 1336.4 ± 1.2 | 937.8 ± 0.2 | 1299.8 ± 1.2 | 929.8 ± 0.2 | 
2 | CCCCCCCCCC [decane] | 1.4123 ± 0.0005 | 1.4079 ± 0.0005 | 1.4033 ± 0.0005 | 1.3987 ± 0.0005 | 1.3942 ± 0.0005 | 1.3893 ± 0.0005 | 1254.6 ± 1.2 | 730.1 ± 0.2 | 1215.1 ± 1.2 | 722.6 ± 0.3 | 1176.1 ± 1.2 | 714.9 ± 0.3 | 1137.6 ± 1.2 | 707.3 ± 0.3 | 1099.8 ± 1.2 | 699.5 ± 0.3 | 1062.3 ± 1.2 | 691.8 ± 0.3 | 
3 | CCCCCCCCCC [decane] + c1ccc2c(c1)CCCC2 |  |  |  |  |  |  |  |  |  |  |  |  |  |  |  |  |  |  | speed of sound ([3]; 293.15 K): 1254.6 ± 1.2 m/s; mass density ([3]; 293.15 K): 730.1 ± 0.2 kg/m3; speed of sound ([3]; 303.15 K): 1215.1 ± 1.2 m/s; mass density ([3]; 303.15 K): 722.6 ± 0.3 kg/m3; speed of sound ([3]; 313.15 K): 1176.1 ± 1.2 m/s; mass density ([3]; 313.15 K): 714.9 ± 0.3 kg/m3; speed of sound ([3]; 323.15 K): 1137.6 ± 1.2 m/s; mass density ([3]; 323.15 K): 707.3 ± 0.3 kg/m3; speed of sound ([3]; 333.15 K): 1099.8 ± 1.2 m/s; mass density ([3]; 333.15 K): 699.5 ± 0.3 kg/m3; speed of sound ([3]; 343.15 K): 1062.3 ± 1.2 m/s; mass density ([3]; 343.15 K): 691.8 ± 0.3 kg/m3; refractive index ([4]; 293.15 K): 1.4123 ± 0.0005; refractive index ([4]; 303.15 K): 1.4079 ± 0.0005; refractive index ([4]; 313.15 K): 1.4033 ± 0.0005; refractive index ([4]; 323.15 K): 1.3987 ± 0.0005; refractive index ([4]; 333.15 K): 1.3942 ± 0.0005; refractive index ([4]; 343.15 K): 1.3893 ± 0.0005
